Here are results for two molecules from paper PMC6888270 (International Journal of Molecular Sciences, 2019).

Square brackets hold non-standard residues; d marks the D form. Peptide text beside a SMILES is read from it. d(hArg(Et2)) = CCN=C(NCC)NCCCC[C@@H](N)C(=O)O; hArg(Et2) = CCN=C(NCC)NCCCC[C@H](N)C(=O)O; dPhe(4-Cl) = N[C@H](Cc1ccc(Cl)cc1)C(=O)O; d2Nal = N[C@H](Cc1ccc2ccccc2c1)C(=O)O; dCit = NC(=O)NCCC[C@@H](N)C(=O)O; d3Pal = N[C@H](Cc1cccnc1)C(=O)O

Assay [1] has as its system β-catenin activation. Briefly: Immunofluorescence of active β-catenin in HEK293/GnRHR cells. The class given is cell-based, human. Particulars: 1 µM GnRH + 1 µM antagonist, 1 h. As for the experimental part:
In order to evaluate the activation of phospho-proteins and β-catenin by Western blotting and immunofluorescence, 1 × 10^5 HEK293 cells were transiently transfected in a 24-well plate. To this purpose, 500 ng of GnRHR-HA-encoding vector diluted in 2 µL/well Lipofectamine® 2000 Transfection Reagent (Invitrogen) were used, according to the manufacturer’s instructions. Transfected HEK293 cells (HEK293/GnRHR) were cultured for 48 h and maintained over-night in serum-free medium before experiments.
3 × 10^4 HEK293/GnRHR and mock-transfected HEK293 cells (negative control) were plated on gelatine-treated slides. […] As a positive control, cells were treated for 16 h with 100 nM of the selective glycogen synthase kinase 3 (GSK3) inhibitor, CHIR99021 (Sigma-Aldrich), which stabilizes free cytosolic β-catenin [68]. After stimulations, cells were washed in PBS with Ca^2+/Mg^2+ and fixed for 20 min in paraformaldehyde 4%/PBS. Cell monolayers were washed by PBS and permeabilized using 0.1% Triton X-100. Samples were incubated in 4% bovine serum albumin (BSA)/PBS, for 1 h at room temperature (RT), before incubation with a mouse primary antibody targeting β-catenin (#05-665, 1:300 dilution in 4% BSA/PBS; Merck KGaA) overnight at 4 °C. Following washing, cells were then incubated with Cy3-conjugated anti-mouse IgG secondary antibody (#C2181, 1:200 dilution in 4% BSA/PBS; Sigma-Aldrich) for 1 h at RT. Cell monolayers were then stained for 10 min with 4′,6-diamidino-2-phenylindole (DAPI) (Sigma-Aldrich) and washed in PBS before slide treatment by polyvinyl alcohol mounting medium with 1,4-diazabicyclo[2.2.2]octane (DABCO®) (Sigma-Aldrich). Fluorescent signals were detected using the Eclipse Ni-E microscope (Nikon Instruments BV, Amsterdam, The Netherlands).

In assay [2] the target is T1, GnRH receptor (GnRHR) (Homo sapiens, UniProt P30968).
T1 sequence (P30968 1-328): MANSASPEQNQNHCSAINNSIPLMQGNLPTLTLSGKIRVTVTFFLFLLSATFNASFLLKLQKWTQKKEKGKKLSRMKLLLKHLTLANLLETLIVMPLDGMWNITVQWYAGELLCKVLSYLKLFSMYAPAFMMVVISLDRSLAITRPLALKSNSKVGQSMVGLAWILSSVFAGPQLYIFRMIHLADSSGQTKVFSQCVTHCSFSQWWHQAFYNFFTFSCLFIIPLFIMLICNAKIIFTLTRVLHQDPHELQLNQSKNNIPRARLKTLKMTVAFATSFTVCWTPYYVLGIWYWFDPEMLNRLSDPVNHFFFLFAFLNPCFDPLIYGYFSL
Briefly: BRET measurement of GnRH-induced intracellular Ca2+ increase in HEK293/GnRHR cells. Particulars: means ± SEM, n = 6. Further details: HA (hemagglutinin); expressed in transfected cells; host or cells: HEK293 (transient co-transfection with BRET biosensor). The format is cell-based. As for the experimental part:
Different transfection protocols were followed, depending on the endpoint to be measured. For BRET experiments, 3 × 10^4 cells were transiently transfected using vectors expressing the cAMP-CAMYEL or the aequorin-Ca^2+ BRET biosensor-encoding cDNA [59], as appropriate, together with the GnRHR-HA-encoding vector. Transfections were performed in a 96-well plate using the Metafectene PRO reagent (Biontex, München, Germany), as previously described. 100 ng of the receptor-encoding vector + 100 ng of the BRET biosensor-encoding vector were used for co-transfecting HEK293 cells, while SH-SY5Y cells were co-transfected using 200 ng of the receptor-encoding vector + 100 ng of the BRET biosensor-encoding vector. 200 ng of the aequorin-Ca^2+ BRET biosensor-encoding cDNA were used for transfecting LβT2 cells. Each sample was prepared in duplicate, cultured for 48 h and serum-starved over-night before experiments.
To evaluate Ca^2+ increase, cells were incubated in Hank’s Balanced Salt Solution (HBSS) with Ca^2+ and Mg^2+, 1 mM Hepes and 5 µM Coelenterazine H (NanoLight Technologies, a division of Prolume, Ltd., Pinetop, AZ, USA), for 45 minutes, together with Cetrorelix, Ganirelix, Teverelix or vehicle, as appropriate. […] The EC50 was extrapolated from the curve obtained from each cell line. Cells treated by 5 µM of the sarco/endoplasmic reticulum Ca^2+ ATPase enzyme inhibitor, thapsigargin (Tocris Bioscience), served as positive control. Treatment by the vehicle (HBSS) was the negative control and used as a normalizer.
BRET experiments were performed using a CLARIOstar plate reader equipped by a monocromator (BMG Labtech, Ortenberg, Germany), as previously described.
Data were plotted on graphs as means ± standard error of means (SEM). The kinetics of intracellular Ca^2+ increase was represented by the BRET biosensor emission after background subtraction (vehicle). […] Data distributions were analyzed by D’Agostino and Pearson normality tests and inhibition of intracellular Ca^2+ increase by different concentrations of antagonist were compared using two-way analysis of variance (ANOVA), followed by Bonferroni post-test or Kruskal-Wallis and proper post-test. cAMP accumulation was represented as acceptor:donor emission ratio (induced BRET changes) after basal subtraction (untreated cells). Dose-response curves were obtained by data interpolation using non-linear regressions and normalized as percentage of the maximal response. EC50s, as well as half-maximal inhibitory concentrations (IC50), were compared by t-test or Mann–Whitney U test, while results obtained by Western blotting and qRT-PCR data were compared by one-way ANOVA followed by Bonferroni post-test. Statistical differences were considered as significant for p < 0.05. These analyses were performed using the GraphPad Prism software (GraphPad Software Inc., San Diego, CA, USA).

The mark [3] stands for this setting: 3 × EC50 GnRH + 1 pM antagonist.
[4] abbreviates: 3 × EC50 GnRH + 10 pM antagonist.
The mark [5] stands for this setting: 3 × EC50 GnRH + 100 pM antagonist.
Where [6] appears, read: 3 × EC50 GnRH + 1 nM antagonist.
Where [7] appears, read: 3 × EC50 GnRH + 75 nM antagonist.
Where [8] appears, read: 3 × EC50 GnRH + 100 nM antagonist.
The mark [9] stands for this setting: 3 × EC50 GnRH + 1 µM antagonist.

Turning to `CC(=O)N[C@H](Cc1ccc2ccccc2c1)C(=O)N[C@H](Cc1ccc(Cl)cc1)C(=O)N[C@H](Cc1cccnc1)C(=O)N[C@@H](CO)C(=O)N[C@@H](Cc1ccc(O)cc1)C(=O)N[C@H](CCCNC(N)=O)C(=O)N[C@@H](CC(C)C)C(=O)N[C@@H](CCCNC(=N)N)C(=O)N1CCC[C@H]1C(=O)N[C@H](C)C(N)=O` [Cetrorelix] (Ac-[d2Nal][dPhe(4-Cl)][d3Pal]SY[dCit]LRP[dA]-NH2), the “effect on GnRH-induced active β-catenin staining” value in assay [1] is given as “reduced”. Further, the “AUC of the kinetics of intracellular Ca2+ response” value (shortened to “AUC”) in assay [2] (setting [3]) is on record as 78,113 ± 29,979; in assay [2] (setting [4]), 124,981 ± 33,684; in assay [2] (setting [5]), 126,243 ± 34,982; in assay [2] (setting [6]), 71,127 ± 25,268; in assay [2] (setting [7]), 18,632 ± 4423; in assay [2] (setting [8]), 8946 ± 3296. The “AUC” value in assay [2] (setting [9]) came to 3264 ± 3024.

In the case of `CCN=C(NCC)NCCCC[C@H](NC(=O)[C@H](CC(C)C)NC(=O)[C@@H](CCCCNC(=NCC)NCC)NC(=O)[C@H](Cc1ccc(O)cc1)NC(=O)[C@H](CO)NC(=O)[C@@H](Cc1cccnc1)NC(=O)[C@@H](Cc1ccc(Cl)cc1)NC(=O)[C@@H](Cc1ccc2ccccc2c1)NC(C)=O)C(=O)N1CCC[C@H]1C(=O)N[C@H](C)C(N)=O` [Ganirelix] (Ac-[d2Nal][dPhe(4-Cl)][d3Pal]SY[d(hArg(Et2))]L[hArg(Et2)]P[dA]-NH2; N-terminus and C-terminus assumed), in assay [1], the “effect on GnRH-induced active β-catenin staining” value was “reduced”. The “AUC” value in assay [2] (setting [3]) is reported as 76,189 ± 18,564; in assay [2] (setting [4]), 91,896 ± 21,766; in assay [2] (setting [5]) it was 101,943 ± 27,388; in assay [2] (setting [6]), 66,665 ± 16,035; in assay [2] (3 × EC50 GnRH + 10 nM antagonist), 73,164 ± 16,237; in assay [2] (setting [7]), 43,870 ± 4193. The “AUC” value in assay [2] (setting [8]) was 34,734 ± 13,731; in assay [2] (setting [9]), 3346 ± 2977.
